What was measured:
[1] = tested on: locally advanced or metastatic non-small cell lung cancer (NSCLC); experiment: POPLAR phase II clinical trial (NCT01903993): atezolizumab vs docetaxel, outcomes by bTMB score; format: in vivo, human; settings: bTMB≥16, per treatment arm
Procedure: (§1) A blood-based assay was used to evaluate the association between clinical response to treatment with atezolizumab (MPDL3280A) and blood tumor mutational burden (bTMB) score in patients with non-small cell lung cancer (NSCLC) enrolled in two clinical trials, a phase II clinical trial, POPLAR (Clinical Trial ID No.: NCT01903993), and a phase III clinical trial, OAK (Clinical Trial ID No.: NCT02008227), in which atezolizumab was administered as a monotherapy.
(§2) Pre-treatment blood samples from patients with NSCLC who were enrolled in the POPLAR and/or the OAK studies, in which atezolizumab was administered as a monotherapy, were evaluated for bTMB score and/or maximum somatic allele frequency (MSAF).
The POPLAR (Clinical Trial ID No.: NCT01903993) patient population evaluated for bTMB score consisted of 273 patients. Patients were eligible for enrollment in the POPLAR study if they had locally advanced or metastatic (e.g., stage IIIB, stage IV, or recurrent) non-small cell lung cancer (NSCLC); disease progression during or following treatment with a prior platinum-containing regimen for locally advanced, unresectable/inoperable, or metastatic NSCLC, or disease recurrence within 6 months of treatment with a platinum-based adjuvant/neoadjuvant regimen; measurable disease, as defined by RECIST v1.1; and an Eastern Cooperative Oncology Group (ECOG) performance status of 0 or 1. Participants were randomized to receive either atezolizumab at a dose of 1200 mg intravenously every three weeks or docetaxel 75 mg per meter square (mg/m^2) intravenously every three weeks. Treatment with atezolizumab could be continued as long as participants were experiencing clinical benefit, i.e., in the absence of unacceptable toxicity or symptomatic deterioration attributed to disease progression.
(§3) Analysis of bTMB was performed retrospectively. Progression-free survival (PFS) was defined as the time between date of randomization and date of first documented disease progression as assessed by the investigator using RECIST v.1.1 or death from any cause, whichever occurred first. Overall survival (OS) was defined as the time between the date of randomization until death due to any cause. Treatment arms were compared for OS and PFS individually using a univariate Cox regression model without stratification in the biomarker evaluable-population (BEP) and their subgroups or using a stratified (by randomization stratification factors) Cox model in the ITT population. No multiplicity correction was applied to p-values or confidence intervals (CI). Kaplan-Meier methodology was used to estimate median OS and PFS and construct survival curves.
In the POPLAR ITT population (N=287), 273 samples were available for analysis. Of these, 6 were removed for sample contamination >1%; 9 were removed for median exon coverage <800×; and 47 were removed for low MSAF<1%.
The POPLAR BEP (N=211) includes 15 patients with EGFR mutation or ALK rearrangement, and 196 without known alterations.
(§4) To identify somatic mutations and calculate a bTMB score, whole blood samples obtained from each patient (collected in EDTA or Streck tubes) were processed through a series of spins to isolate plasma, from which cell free DNA (cfDNA) was extracted for sequencing analysis. Specifically, at least 20 ng purified cfDNA was used for library construction. Next-generation sequencing libraries using fragment barcodes and hybrid capture were constructed to analyze and sequence a pre-determined set of 394 genes that covered approximately 1.125 Mb of the exome. Specifically, purified libraries were hybrid captured using a 394-gene bait set and then further purified, pooled and loaded on an ILLUMINA® HISEQ® 4000 sequencing system. Sequenced libraries were aligned and sorted. […]

[2] = tested on: locally advanced or metastatic non-small cell lung cancer (NSCLC); experiment: OAK phase III clinical trial (NCT02008227): atezolizumab vs docetaxel, outcomes by bTMB score and PD-L1 IHC; format: in vivo, human; settings: OAK
Procedure: as §1, §2
The OAK (Clinical Trial ID No.: NCT02008227) patient population evaluated for bTMB score consisted of 583 patients. Patients were eligible for enrollment in the OAK study if they had locally advanced or metastatic (e.g., stage IIIB, stage IV, or recurrent) NSCLC; disease progression during or following treatment with a prior platinum-containing regimen for locally advanced, unresectable/inoperable, or metastatic NSCLC, or disease recurrence within 6 months of treatment with a platinum-based adjuvant/neoadjuvant regimen; measurable disease, as defined by RECIST v1.1; and an ECOG performance status of 0 or 1. Participants were randomized to receive either atezolizumab at a dose of 1200 mg intravenously every three weeks or docetaxel 75 mg per square meter (mg/m^2) intravenously every three weeks. Treatment with atezolizumab could be continued as long as participants were experiencing clinical benefit, i.e., in the absence of unacceptable toxicity or symptomatic deterioration attributed to disease progression.
as §3
In the OAK ITT population (N=850), 797 samples were available for analysis. Of these samples, 13 were removed for sample contamination >1%; 42 were removed for median exon coverage <800×; and 100 were removed for low MSAF<1%.
The OAK BEP (N=642) included 59 patients with EGFR mutation or ALK rearrangement, and 583 without known alterations.
as §4, with “sorted. In order to accurately call variants at low allele frequencies and minimize artifacts from sequencing, PCR, or DNA damage-related errors, sequenced libraries were processed by a cfDNA computational pipeline that corrected errors via the use of fragment barcodes.” for “sorted.”

CC(=O)O[C@@]12CO[C@@H]1C[C@H](O)[C@@]1(C)C(=O)[C@H](O)C3=C(C)[C@@H](OC(=O)[C@H](O)[C@@H](NC(=O)OC(C)(C)C)c4ccccc4)C[C@@](O)([C@@H](OC(=O)c4ccccc4)[C@H]21)C3(C)C [docetaxel]
median OS [1]: 7.4 months
median PFS [1]: 2.9 months
median OS ([2]; bTMB≥16, per treatment arm): 6.8 months
best overall response rate ([2]; bTMB≥16 patients, per treatment arm): 10%

— patent publication US11674962B2, “Therapeutic and diagnostic methods for cancer” (Genentech, Inc., priority 2017, dated 2023)
